Results as given in patent publication US20230105577A1, “A TOPICAL COMPOSITION” (Conopco, Inc., d/b/a UNILEVER, priority 2020, published 2023).
Structures can show the parent of a compound that is named as a salt.

Columns and labels:
[1] = test system: M. furfur (CBS1878); settings: for The range of concentration of the atractylenolide compound (ppm) where the ΣFIC was less than 0.9 / The range of ratio of atractylenolide compound/octopirox (w/w) where ΣFIC was less than 0.9: in combination with octopirox, 32° C.
Experimental: Method 1: ΣFIC Assay Against M. furfur.
M. furfur (CBS1878) was maintained on MD agar plate (Solution A) was cultured into 20 ml of growth medium Pityrosporum Broth (PB, Solution B). They are then incubated at 32° C. for 48 hours with shaking. Then, 1 ml of the first broth culture is transferred into 9 ml of fresh PB and incubated at 32° C. for 48 hours with shaking. The final culture should contain 2 to 6×10^6 cells/ml. This is achieved by diluting using PB to 5×10^5 cells/ml.
Octopirox® was serially diluted (2-fold) to prepare in a range of 60-1000 ppm in the growth medium. Testing atractylenolide compound (stock: 4 mg/ml) was 2-fold serially diluted in DMSO to prepare in a range of 40000-10 ppm. Binary combinations of octopirox and the testing compound were prepared in 96-well plate by mixing 10 μl of octopirox solution with 10 μl of testing compound. The solution in each well were further mixed with 180 μl of M. furfur strain suspensions in PB.
The final cell density in the testing plate is around 5*10^4 cell/ml. The final concentration of each ingredient in ppm (parts per million) after (20-fold dilution) was as follows. Each of these concentrations was tried out to determine the FIC value for (either of) Octopirox® in combination with one of the atractylenolide compound.
Multi-channel pipette was used to mix the compound and strain suspension. Thereafter the 96-well plates were incubated in an incubator. In accordance with the test protocols that were followed, M. furfur was incubated aerobically at 32° C. for 1 day. Thereafter 20 μl alamar blue (0.1%) was dispensed in each well and the procedure of incubation (as abovementioned) was repeated. Finally, the change in colour of the indicator was monitored to check for visible signs of microbial growth or inhibition of the growth. If the colour changed to red it indicated growth (of microbes) and blue indicated no growth or inhibition of growth.
The MIC is defined as the absolute lowest concentration of active that provides complete microbial growth inhibition as indicated by the blue color of alamar blue under the tested condition.
The procedure is as follows:
The parameter can be defined as follows:
After all the observations were recorded and tabulated, the Fractional Inhibition Concentration (FIC) was calculated.
This parameter is defined as follows:
ΣFIC=FIC(component1)+FIC(component2)
In this study, we have adopted a liberal approach defining any binary mixture with ΣFIC<0.9 as showing evidence of synergistic behavior.
The experiments were carried out over a concentration range of ingredients as below:

[2] = test system: M. furfur (CBS 1878); assay: Zone of inhibition (ZOI) assay; type: cell-based, Malassezia furfur; settings: 0.1% OCT, 10 μL on 6 mm filter paper, 32° C., 2 days
Experimental: Method 2: Zone Off Inhibition (ZOI) Assay
Atractylodes macrocephala (AM) root water extract (purchased from Huzhou Liaoyuan, China) was prepared at concentration of 0.75%, and 1.5% in 50% water/DMSO. Octopirox (OCT) was prepared at concentration of 0.1% and 0.2% in DMSO. Prepare Malassezia growth agar plates, and then spread 200 μL M. furfur (10^6 CFU) (CBS 1878) on to the agar. Several sterile filter papers (diameter=6 mm) were placed on the agar plate. 10 μL of compound solutions were added on the filter paper. The plates were Incubate at 32° C. for 2 days. Clear growth inhibition zone was recorded.
Synergistic antimicrobial activity:Inhibition distance for compound1+compound2combination>Inhibition distance for compound1 alone+Inhibition distance for compound2 alone

Molecule | Synergistic antimicrobial activity in combination with Octopirox® (ΣFIC assay) ([1]; binary combination with Octopirox® 0-50 ppm) | Inhibition distance (mm) = (Inhibition zone diameter − filter paper diameter)/2 ([2]; 0.75% AM) [mm] | Inhibition distance (mm) = (Inhibition zone diameter − filter paper diameter)/2 ([2]; 1.5% AM) [mm] | The range of concentration of the atractylenolide compound (ppm) where the ΣFIC was less than 0.9 [1] | The range of ratio of atractylenolide compound/octopirox (w/w) where ΣFIC was less than 0.9 [1]
zinc pyrithione [ZPTO, reference compound] | cannot interact synergistically | – | – | – | –
Cc1cc(CC(C)CC(C)(C)C)n(O)c(=O)c1 (stereo not shown) [OCT, 1-hydroxy-4-methyl-6-(2,4,4-trimethylpentyl)-2(1H) pyridinone monoethanolamine salt] | – | 2.7 | 2.7 | – | –
C=C1CCC[C@]2(C)C[C@@H]3OC(=O)C(C)=C3C[C@@H]12 [Atractylenolide II, atractylenolide II] | – | – | – | 31.25-1000 ppm | 5-2560 w/w
C=C1CCC[C@]2(C)C=C3OC(=O)C(C)=C3C[C@@H]12 [Atractylenolide I, atractylenolide I] | – | – | – | 31.25-500 ppm | 5-1280 w/w
